Type in all cases: cell-based
For experiment [1], the target named is EGFR(D770_N771insSVD) expressing Ba/F3 stable cell line (Homo sapiens, UniProt P00533, DUP768-770, cells depend on it). Description: Cellular proliferation (Alamar Blue) assay, EGFR D770_N771insSVD Ba/F3. As to conditions: 72 hr, read-out: D770 IC50. Here is the method:
(§1) • 1. EGFR(D770_N771insSVD) expressing Ba/F3 stable cell line • 2. EGFR (A767_dupASV) expressing Ba/F3 stable cell line • 3. A431 cells • 4. EGFR (H773insNPH) expressing Ba/F3 stable cell line • 5. HER2 (A775_G776insYVMA) expressing Ba/F3 stable cell line Assay Procedure: • 1. Seed cells at 5000 for A431 and 15,000 cells for Ba/F3 in 100 μL/well in complete media (for A431: DMEM with […] and for Ba/F3 cells: RPMI with 10% FBS) in 96-well tissue culture plate. Leave outer wells without cells for background measurements. Incubate at 37 degree Celsius in […] humidified incubator for 16-18 hours. • 2. Add 0.025 ml of 5× concentration compound dilution or DMSO control. Final compound concentration range is 10-0.0005 μM prepared in 3-fold serial dilutions. Incubate for 72 hr at 37 degree Celsius in […] humidified incubator. • 3. Add 0.0125 ml Alamar Blue™ reagent to each well with multi-channel pipette and tap gently on each side of the plate to mix. Incubate for 3 hours at 37 degree Celsius in 5% CO2 humidified incubator. • 4. […] Data analysis was performed using XLfit 5.5.0.5.
(In general: The colour change of resazurin is a common sign of viable cells or microbes.)

In experiment [2] the target is EGFR (A767_dupASV) expressing Ba/F3 stable cell line (Homo sapiens, UniProt P00533, DUP767-769, cells depend on it). Description: Cellular proliferation (Alamar Blue) assay, EGFR A767_dupASV Ba/F3. The note with it: 72 hr, read-out: A767 IC50. The procedure:
as §1

The next experiment deals with A431 cells. Briefly: Cellular proliferation (Alamar Blue) assay, A431. Here is the method: as §1
The mark [3] stands for this setting: Homo sapiens, A-431; A431 cells, Alamar Blue, 72 hr; read-out: A431 IC50.
The mark [4] stands for this setting: Homo sapiens, A-431; A431 cells, 72 hr, Alamar Blue; read-out: A431 IC50.

Structures can show the parent of a compound that is named as a salt. Where two headings read alike, the source gives them in different places.

Sequence of EGFR(D770_N771insSVD) expressing Ba/F3 stable cell line (P00533 with tags, fused parts or gaps DUP768-770): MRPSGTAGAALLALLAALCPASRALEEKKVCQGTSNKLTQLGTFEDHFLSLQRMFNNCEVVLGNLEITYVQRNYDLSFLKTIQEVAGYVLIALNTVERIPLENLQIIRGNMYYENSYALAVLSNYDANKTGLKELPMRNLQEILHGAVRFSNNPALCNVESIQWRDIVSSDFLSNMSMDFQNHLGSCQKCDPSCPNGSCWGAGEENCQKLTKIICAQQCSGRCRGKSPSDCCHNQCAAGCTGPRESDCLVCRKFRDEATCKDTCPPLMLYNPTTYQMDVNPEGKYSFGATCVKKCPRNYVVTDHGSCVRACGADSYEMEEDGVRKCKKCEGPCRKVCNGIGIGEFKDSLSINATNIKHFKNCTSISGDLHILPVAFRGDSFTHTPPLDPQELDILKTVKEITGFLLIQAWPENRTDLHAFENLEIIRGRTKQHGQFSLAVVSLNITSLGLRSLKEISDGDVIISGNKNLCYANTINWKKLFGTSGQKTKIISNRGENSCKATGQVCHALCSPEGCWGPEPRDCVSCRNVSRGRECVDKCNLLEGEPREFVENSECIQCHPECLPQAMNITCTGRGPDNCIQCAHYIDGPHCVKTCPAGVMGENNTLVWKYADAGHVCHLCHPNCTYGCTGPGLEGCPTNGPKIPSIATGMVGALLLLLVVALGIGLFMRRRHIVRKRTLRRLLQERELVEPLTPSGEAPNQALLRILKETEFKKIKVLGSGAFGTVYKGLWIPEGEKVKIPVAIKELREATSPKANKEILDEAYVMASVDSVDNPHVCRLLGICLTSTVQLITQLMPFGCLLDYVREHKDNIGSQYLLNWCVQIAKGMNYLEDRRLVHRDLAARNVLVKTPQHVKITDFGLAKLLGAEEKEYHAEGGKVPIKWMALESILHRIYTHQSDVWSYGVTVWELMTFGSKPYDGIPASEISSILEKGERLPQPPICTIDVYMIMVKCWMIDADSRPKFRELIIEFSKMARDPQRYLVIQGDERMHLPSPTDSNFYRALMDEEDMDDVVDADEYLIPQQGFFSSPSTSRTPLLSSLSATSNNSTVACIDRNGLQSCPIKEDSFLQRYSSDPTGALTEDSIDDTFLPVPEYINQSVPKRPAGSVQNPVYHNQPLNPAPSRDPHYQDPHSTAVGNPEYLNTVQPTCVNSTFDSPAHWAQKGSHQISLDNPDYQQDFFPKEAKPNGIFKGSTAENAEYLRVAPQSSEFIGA
Sequence of EGFR (A767_dupASV) expressing Ba/F3 stable cell line (P00533 with tags, fused parts or gaps DUP767-769): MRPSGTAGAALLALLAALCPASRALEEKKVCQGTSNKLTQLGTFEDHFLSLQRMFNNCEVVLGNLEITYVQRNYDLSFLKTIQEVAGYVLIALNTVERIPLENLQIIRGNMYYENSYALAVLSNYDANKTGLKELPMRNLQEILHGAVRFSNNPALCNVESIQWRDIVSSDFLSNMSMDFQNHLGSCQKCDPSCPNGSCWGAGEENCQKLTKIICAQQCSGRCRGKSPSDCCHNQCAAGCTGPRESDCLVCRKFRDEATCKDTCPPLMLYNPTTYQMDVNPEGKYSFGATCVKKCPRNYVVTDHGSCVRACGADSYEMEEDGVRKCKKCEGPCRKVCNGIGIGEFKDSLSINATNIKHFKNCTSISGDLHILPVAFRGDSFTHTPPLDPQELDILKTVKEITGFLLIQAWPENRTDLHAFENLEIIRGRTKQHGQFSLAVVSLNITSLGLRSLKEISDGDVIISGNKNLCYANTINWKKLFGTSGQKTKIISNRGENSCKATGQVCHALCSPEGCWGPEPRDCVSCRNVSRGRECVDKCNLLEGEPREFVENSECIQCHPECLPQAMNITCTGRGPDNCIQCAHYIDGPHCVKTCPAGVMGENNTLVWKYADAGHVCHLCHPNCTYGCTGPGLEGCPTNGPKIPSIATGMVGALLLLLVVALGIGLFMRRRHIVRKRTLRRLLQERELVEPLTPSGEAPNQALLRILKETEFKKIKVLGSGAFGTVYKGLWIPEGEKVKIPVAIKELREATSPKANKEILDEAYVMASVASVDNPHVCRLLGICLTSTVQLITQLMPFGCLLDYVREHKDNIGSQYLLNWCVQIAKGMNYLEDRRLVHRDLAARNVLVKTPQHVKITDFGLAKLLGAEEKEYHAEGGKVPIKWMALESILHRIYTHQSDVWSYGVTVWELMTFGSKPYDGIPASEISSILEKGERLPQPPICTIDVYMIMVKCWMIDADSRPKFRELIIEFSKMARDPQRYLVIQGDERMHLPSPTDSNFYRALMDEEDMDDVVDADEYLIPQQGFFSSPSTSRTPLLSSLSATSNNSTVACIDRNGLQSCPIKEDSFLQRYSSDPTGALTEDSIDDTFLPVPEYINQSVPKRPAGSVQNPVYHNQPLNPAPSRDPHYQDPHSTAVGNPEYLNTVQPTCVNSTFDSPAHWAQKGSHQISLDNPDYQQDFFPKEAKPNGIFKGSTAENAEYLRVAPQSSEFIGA

What is called IC50 is the midpoint of a concentration-inhibition curve. With `C=CC(=O)Nc1ccc(C(F)(F)F)c(Oc2nc(Nc3cnn(C)c3)ncc2Cl)c1` [Compound 169, N-(3-((5-chloro-2-((1-methyl-1H-pyrazol-4-yl)amino)pyrimidin-4-yl)oxy)-4-(trifluoromethyl)phenyl)acrylamide], the GI50 is greater than 10 µM in experiment [1] and 8.95 µM in experiment [2]. Also, the IC50 in the experiment on A431 cells (setting [3]) came out at 9.69 µM.

On to `C=CC(=O)Nc1ccc(F)c(Nc2nc(NC3CCC3)ncc2-c2ccc(C(F)(F)F)cc2)c1` [Compound 181, N-(3-((2-(cyclobutylamino)-5-(4-(trifluoromethyl)phenyl)pyrimidin-4-yl)amino)-4-fluorophenyl)acrylamide], for which the GI50 in experiment [1] and in experiment [2] was greater than 10 µM throughout. Besides, the IC50 in the experiment with A431 cells (setting [3]) is greater than 10 µM.

As to `C=CC(=O)Nc1ccc(F)c(Nc2nc(Nc3ccn(C)n3)ncc2-c2ccc(C(F)(F)F)cc2)c1` [Compound 113, N-(4-fluoro-3-((2-((1-methyl-1H-pyrazol-3-yl)amino)-5-(4-(trifluoromethyl)phenyl)pyrimidin-4-yl)amino)phenyl)acrylamide trifluoroacetate], the GI50 was 0.317 µM in experiment [1] and 0.263 µM in experiment [2]. Moreover, the IC50 with A431 cells (setting [3]) amounted to 0.201 µM.

In the case of `C=CC(=O)Nc1ccc(N(C)C)c(Nc2nc(Nc3cnn(C)c3)ncc2-c2ccc(C(F)(F)F)cc2)c1` [Compound 119, N-(4-(dimethylamino)-3-((2-((1-methyl-1H-pyrazol-4-yl)amino)-5-(4-(trifluoromethyl)phenyl)pyrimidin-4-yl)amino)phenyl)acrylamide trifluoroacetate], the GI50 in experiment [1] and in experiment [2] was greater than 10 µM throughout. Besides, the IC50 in the experiment with A431 cells (setting [3]) was greater than 10 µM.

For `C=CC(=O)Nc1cc(Nc2nc(Nc3cnn(C)c3)ncc2-c2ccc(C(F)(F)F)cc2)ccc1N(C)CCN(C)C` [Compound 199, N-(2-{[2-(dimethylamino)ethyl](methyl)amino}-5-({2-[(1-methyl-1H-pyrazol-4-yl)amino]-5-[4-(trifluoromethyl)phenyl]pyrimidin-4-yl}amino)phenyl)prop-2-enamide], the GI50 in experiment [1] was determined as 0.239 µM; in experiment [2], 0.704 µM. Further, in the experiment with A431 cells (setting [4]), the half-inhibitory concentration (IC50) came to 0.716 µM.

`C=CC(=O)Nc1ccc(C#Cc2ccccc2)c(Nc2nc(Nc3cnn(C)c3)ncc2Cl)c1` [Compound 178, N-[3-({5-chloro-2-[(1-methyl-1H-pyrazol-4-yl)amino]pyrimidin-4-yl}amino)-4-(2-phenylethynyl)phenyl] prop-2-enamide]: the GI50 in experiment [1] and in experiment [2] was greater than 10 µM each time. In addition, the IC50 in the experiment with A431 cells (setting [3]) is 9.97 µM.

For the compound `C=CC(=O)Nc1cc(Nc2nc(Nc3cnn(C)c3)ncc2-c2ccc(C(F)(F)F)cc2)ccn1` [Compound 200, N-(4-((2-((1-methyl-1H-pyrazol-4-yl)amino)-5-(4-(trifluoromethyl)phenyl)pyrimidin-4-yl)amino)pyridin-2-yl)acrylamide], the GI50 in experiment [1] stood at 6.02 µM; in experiment [2], 2.76 µM. The IC50 in the experiment on A431 cells (setting [4]) was determined as 1.28 µM.

For `C=CC(=O)Nc1cccc(Oc2nc(Nc3ccc(N4CCN(C)CC4)cc3OC)ncc2-c2ccc(C(F)(F)F)cc2)c1` [Compound 191, N-(3-((2-((2-methoxy-4-(4-methylpiperazin-1-yl)phenyl)amino)-5-(4-(trifluoromethyl)phenyl)pyrimidin-4-yl)oxy)phenyl)acrylamide], the GI50 in experiment [1] was greater than 10 µM; in experiment [2] it was 9.65 µM. Moreover, in the experiment with A431 cells (setting [3]), the IC50 is 0.898 µM.

As to `C=CC(=O)Nc1ccc(F)c(Nc2nc(Nc3cnn(C)c3)ncc2-c2ccc(S(N)(=O)=O)cc2)c1` [Compound 138, N-(4-fluoro-3-((2-((1-methyl-1H-pyrazol-4-yl)amino)-5-(4-sulfamoylphenyl)pyrimidin-4-yl)amino)phenyl)acrylamide], the GI50 in experiment [1] is 3.14 µM; in experiment [2], 2.88 µM. Also, in the experiment with A431 cells (setting [3]), the IC50 is greater than 10 µM.

Take `Cn1cc(Nc2ncc(-c3ccc(C(F)(F)F)cc3)c(Nc3cc(N)ccc3F)n2)cn1` [Compound 257, N^4-(5-amino-2-fluorophenyl)-N^2-(1-methyl-1H-pyrazol-4-yl)-5-(4-(trifluoromethyl)phenyl)pyrimidine-2,4-diamine]: the GI50 in experiment [1] and in experiment [2] was greater than 10 µM each time. The IC50 in the experiment with A431 cells (setting [4]) is greater than 10 µM.

With `C=CC(=O)Nc1ccc(F)c(Nc2nc(-n3ccc(N)cc3=O)ncc2Cl)c1` [Compound 3, N-(3-((2-(4-amino-2-oxopyridin-1(2H)-yl)-5-chloropyrimidin-4-yl)amino)-4-fluorophenyl)acrylamide], the GI50 in experiment [1] and in experiment [2] was greater than 10 µM each time. Also, in the experiment with A431 cells (setting [3]), the IC50 was greater than 10 µM.

On to `C=CC(=O)Nc1cccc(Oc2nc(Nc3ccc(CN(C)C)cc3)ncc2-c2ccc(C(F)(F)F)cc2)c1` [Compound 234, N-(3-((2-((4-((dimethylamino)methyl)phenyl)amino)-5-(4-(trifluoromethyl)phenyl)pyrimidin-4-yl)oxy)phenyl)acrylamide], for which the GI50 in experiment [1] turned out to be 0.383 µM; in experiment [2], 0.948 µM. The IC50 in the experiment with A431 cells (setting [4]) was 1.13 µM.

For `C=CC(=O)Nc1cccc(Oc2nc(NCCN(C)C)ncc2-c2ccc(C(F)(F)F)cc2)c1` [Compound 236, N-(3-((2-((2-(dimethylamino)ethyl)amino)-5-(4-(trifluoromethyl)phenyl)pyrimidin-4-yl)oxy)phenyl)acrylamide], the GI50 in experiment [1] and in experiment [2] was greater than 10 µM each time. Further, in the experiment with A431 cells (setting [4]), the IC50 is greater than 10 µM.

Take `C=CC(=O)Nc1ccc(F)c(Nc2nc(Nc3cnn(C)c3)nc3ccc(C(F)(F)F)cc23)c1` [Compound 231, N-(4-fluoro-3-((2-((1-methyl-1H-pyrazol-4-yl)amino)-6-(trifluoromethyl)quinazolin-4-yl)amino)phenyl)acrylamide]: the GI50 in experiment [1] turned out to be 8.55 µM; in experiment [2], 3.9 µM. The IC50 in the experiment on A431 cells (setting [4]) turned out to be 4.21 µM.

On to `Cn1cc(Nc2ncc(-c3ccc(CC(F)(F)F)cc3)c(Nc3cc(NC(=O)/C=C/CF)ccc3F)n2)cn1` [Compound 303, (E)-4-fluoro-N-(4-fluoro-3-((2-((1-methyl-1H-pyrazol-4-yl)amino)-5-(4-(2,2,2-trifluoroethyl)phenyl)pyrimidin-4-yl)amino)phenyl)but-2-enamide], for which the GI50 in experiment [1] came out at 0.111 µM; in experiment [2], 0.248 µM. Besides, the IC50 with A431 cells (setting [4]) turned out to be 0.02 µM.

Turning to `C=CC(=O)Nc1ccc(C(=O)Nc2ccccc2)c(Nc2nc(Nc3cnn(C)c3)ncc2Cl)c1` [Compound 163, 2-({5-chloro-2-[(1-methyl-1H-pyrazol-4-yl)amino]pyrimidin-4-yl}amino)-N-phenyl-4-(prop-2-enamido) benzamide], the GI50 in experiment [1] was greater than 10 µM; in experiment [2], 9.44 µM. Also, the IC50 in the experiment with A431 cells (setting [3]) worked out at 8.25 µM.

With `C=C=CC(=O)Nc1ccc(F)c(Nc2nc(Nc3cnn(C)c3)ncc2-c2ccc(C(F)(F)F)cc2)c1` [Compound 251, N-(4-fluoro-3-((2-((1-methyl-1H-pyrazol-4-yl)amino)-5-(4-(trifluoromethyl)phenyl)pyrimidin-4-yl)amino)phenyl)buta-2,3-dienamide], the GI50 in experiment [1] worked out at 10 µM; in experiment [2], 9.88 µM. In addition, the IC50 with A431 cells (setting [4]) is 9.77 µM.

As for `C=CC(=O)Nc1ccc(F)c(Nc2nc(Nc3cnn(C)c3)ncc2-c2ccc(NC(C)=O)cc2)c1` [Compound 58, N-(3-((5-(4-acetamidophenyl)-2-((1-methyl-1H-pyrazol-4-yl)amino)pyrimidin-4-yl)amino)-4-fluorophenyl)acrylamide], the GI50 in experiment [1] is 2.89 µM; in experiment [2] it was 2.66 µM. The IC50 with A431 cells (setting [3]) was greater than 10 µM.

Regarding `C=CC(=O)Nc1ccc(F)c(Nc2nc(N(C)c3cnn(C)c3)ncc2-c2cc(F)cc(OC)c2)c1` [Compound 305, N-(4-fluoro-3-((5-(3-fluoro-5-methoxyphenyl)-2-(methyl(1-methyl-1H-pyrazol-4-yl)amino)pyrimidin-4-yl)amino)phenyl)acrylamide], the GI50 in experiment [1] and in experiment [2] was greater than 10 µM in each case. In addition, the IC50 in the experiment with A431 cells (setting [4]) is greater than 10 µM.

For the compound `C=CC(=O)Nc1ccc(F)c(Nc2nc(Nc3ccccc3)ncc2-c2ccc(C(F)(F)F)cc2)c1` [Compound 121, N-(4-fluoro-3-((2-(phenylamino)-5-(4-(trifluoromethyl)phenyl)pyrimidin-4-yl)amino)phenyl)acrylamide], the GI50 in experiment [1] was 2.87 µM; in experiment [2], greater than 10 µM. Also, the IC50 in the experiment on A431 cells (setting [3]) amounted to 1.28 µM.

As for `C=CC(=O)Nc1ccc(F)c(Nc2nc(Nc3ccc(F)cc3)ncc2-c2ccc(C(F)(F)F)cc2)c1` [Compound 122, N-(4-fluoro-3-((2-((4-fluorophenyl)amino)-5-(4-(trifluoromethyl)phenyl)pyrimidin-4-yl)amino)phenyl)acrylamide trifluoroacetate], the GI50 in experiment [1] was 1.99 µM; in experiment [2] it was greater than 10 µM. The IC50 in the experiment with A431 cells (setting [3]) is 3.69 µM.

(Values after patent US12686673B2 (Blueprint Medicines Corporation, priority 2020, dated 2026).)
